For this test, the target named is Mtb UgpB (Mycobacterium tuberculosis, UniProt P71619). In words: biochemical.
Sequence of Mtb UgpB (P71619 entry or part of it): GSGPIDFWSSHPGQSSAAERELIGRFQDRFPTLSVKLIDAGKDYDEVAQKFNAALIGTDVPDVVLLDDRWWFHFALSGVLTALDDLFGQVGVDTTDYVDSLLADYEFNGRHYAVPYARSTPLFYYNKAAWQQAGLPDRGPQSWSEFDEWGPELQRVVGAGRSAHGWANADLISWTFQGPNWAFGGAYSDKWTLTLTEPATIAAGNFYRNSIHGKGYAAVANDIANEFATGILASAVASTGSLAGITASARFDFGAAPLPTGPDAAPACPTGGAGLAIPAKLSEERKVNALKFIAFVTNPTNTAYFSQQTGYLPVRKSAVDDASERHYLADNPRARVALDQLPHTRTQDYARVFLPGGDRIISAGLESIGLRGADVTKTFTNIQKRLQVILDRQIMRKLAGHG

In turn, `O=P(O)(OC[C@H](O)CO)O[C@@H]1[C@H](O)[C@H](O)[C@@H](O)[C@H](O)[C@H]1O` [GPI, glycerophosphoinositol] registered an equilibrium dissociation constant (Kd) of 1050 ± 313 µM.

With `O=P(O)(O)O[C@H]1[C@H](O)[C@@H](O)[C@H](OP(=O)(O)OC[C@H](O)CO)[C@H](O)[C@@H]1O` [GPI4P, glycerophosphoinositol-4-phosphate], binding was put at a Kd of 290 ± 54.1 µM.

Usually Kd stands for the constant that tells how readily two partners part at equilibrium. Higher therefore signals a looser complex.

The values are drawn from publication PMC6757277, “Structural Basis of Glycerophosphodiester Recognition by the Mycobacterium tuberculosis Substrate-Binding Protein UgpB” (ACS Chemical Biology, 2019).
